In series [1] the test system is Human immunodeficiency virus 1. Description: Antiviral activity against HIV1 infected in cell culture in presence of 45 mg/ml human serum albumin and 10% FBS. The format is functional, organism-based.
The subject of series [2] is Human immunodeficiency virus 1. The experiment in a line: Antiviral activity against HIV1 infected in cell culture in presence of 10% FBS. The format is functional, organism-based.
Series [3] deals with Human immunodeficiency virus type 1 integrase (Human immunodeficiency virus 1, UniProt Q7ZJM1). The experiment in a line: Inhibition of HIV-1 integrase strand transfer activity.
Series [4] is described as follows: Volume of distribution at steady state in Sprague-Dawley rat at 1 mg/kg, iv. The arrangement: dose 1 mg/kg, route intravenous. The class given is ADME, organism-based. The conditions noted are these: in vivo, read-out: Vdss.
The nature of series [5]: AUC in Sprague-Dawley rat at 5 mg/kg, po. The arrangement: dose 5 mg/kg, route oral. The conditions noted are these: plasma. The format is ADME, organism-based.
A short description of series [6]: Cmax in Sprague-Dawley rat at 5 mg/kg, po. The class given is ADME, organism-based. The arrangement: dose 5 mg/kg, route oral. The conditions noted are these: in vivo.
Series [7] is described as follows: Tmax in Sprague-Dawley rat at 5 mg/kg, po. The conditions noted are these: in vivo. Set-up: dose 5 mg/kg, route oral. The format is ADME, organism-based.
The nature of series [8]: Oral bioavailability in Sprague-Dawley rat at 5 mg/kg. The class given is ADME, organism-based. The conditions noted are these: in vivo.
A short description of series [9]: Half life in Sprague-Dawley rat at 1 mg/kg, iv. The format is ADME, organism-based. Set-up: dose 1 mg/kg, route intravenous. The conditions noted are these: in vivo.
Series [10] can be described thus: Clearance in Sprague-Dawley rat at 1 mg/kg, iv. The format is ADME, organism-based. The conditions noted are these: in vivo. Set-up: dose 1 mg/kg, route intravenous.

Sequence of Human immunodeficiency virus type 1 integrase (Q7ZJM1 whole entry): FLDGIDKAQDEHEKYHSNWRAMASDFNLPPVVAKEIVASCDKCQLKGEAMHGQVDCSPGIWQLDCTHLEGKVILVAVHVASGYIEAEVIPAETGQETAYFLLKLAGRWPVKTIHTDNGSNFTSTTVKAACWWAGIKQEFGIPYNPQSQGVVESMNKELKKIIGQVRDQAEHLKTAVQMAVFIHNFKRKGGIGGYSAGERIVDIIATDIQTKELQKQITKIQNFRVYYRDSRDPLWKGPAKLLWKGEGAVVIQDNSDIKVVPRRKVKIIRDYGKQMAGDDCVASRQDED

As for `Cc1cnnn1-c1cc(F)ccc1CNC(=O)c1nc(C2CCOC2)n(C)c(=O)c1O` (racemic), the figures for the EC50 in series [1] and in series [2] were 28 nM and 13 nM, respectively. Besides, in [3], the concentration for half-maximal inhibition (IC50) was determined as 10 nM.
Taken in the same sequence, the figures for `Cn1c(C2(C)CCCS2)nc(C(=O)NCc2ccc(F)cc2)c(O)c1=O` (racemic) were 153 nM, 15 nM and 5 nM.
In the case of `Cn1c(-c2ccco2)nc(C(=O)NCc2ccc(F)cc2)c(O)c1=O`, the EC50 in series [1] came to 14500 nM; in series [2] it was 424 nM. This molecule gave an IC50 in series [3] of 21 nM.
`Cn1cnnc1-c1cc(F)ccc1CNC(=O)c1nc(C2CCOC2)n(C)c(=O)c1O` (racemic): the EC50 amounted to 27 nM in [1] and 28 nM in series [2]. Also, the IC50 in series [3] was 18 nM.
Taken in the same sequence, the figures for `Cn1c(C2CCOCC2)nc(C(=O)NCc2ccc(F)cc2-n2cncn2)c(O)c1=O` were 18 nM, 10 nM and 6 nM.
For `Cc1ncnn1-c1cc(F)ccc1CNC(=O)c1nc(C2CCOCC2)n(C)c(=O)c1O`, in that order: 14 nM, 9 nM and 8 nM.
For the molecule `Cc1cnnn1-c1cc(F)ccc1CNC(=O)c1nc(C2CCOCC2)n(C)c(=O)c1O`, the EC50 in series [1] was determined as 18 nM; in series [2], 8 nM. The same molecule registered an IC50 in series [3] of 13 nM.
For `Cn1ncnc1-c1cc(F)ccc1CNC(=O)c1nc(C2CCOCC2)n(C)c(=O)c1O`, in that order: 7 nM, 4 nM and 9 nM.
Taken in the same sequence, the figures for `CN1C(C)(C)CN(c2cc(F)ccc2CNC(=O)c2nc(C3CCOC3)n(C)c(=O)c2O)S1(=O)=O` (racemic) were 22 nM, 2 nM and 10 nM.
Taken in the same sequence, the figures for `Cn1c(C2CCCCO2)nc(C(=O)NCc2ccc(F)cc2)c(O)c1=O` (racemic) were 301 nM, 49 nM and 10 nM.
Consider `Cn1c(C2CCOC2)nc(C(=O)NCc2ccc(F)cc2N2CCCCS2(=O)=O)c(O)c1=O` (racemic), for which the Vd in series [4] amounted to 0.2 L/kg. In series [5], the exposure (AUC) was 12.3 µM·h. Further, the concentration in series [6] peaked (Cmax) at 3.51 µM. Besides, the Tmax in series [7] came to 37.8 min. Moreover, the bioavailability in series [8] amounted to 60%. The molecule further gave a half-life in [9] of 32.4 min. For the same molecule, the figures for the 50% effective concentration (EC50) in series [1] and in [2] were 19 nM and 5 nM, respectively. The molecule also came in with a clearance in [10] of 6 mL/min/kg. Moreover, the IC50 in series [3] was found to be 9 nM.
As for `Cn1c(C2CCOCC2)nc(C(=O)NCc2ccc(F)cc2)c(O)c1=O`, the Vd in series [4] worked out at 0.12 L/kg. In addition, the half-life in series [9] is 34.8 min. Further, the figures for the half-maximal effective concentration (EC50) in [1] and in [2] were 28 nM and 6 nM, respectively. Besides, the clearance in series [10] came out at 2.6 mL/min/kg. The same molecule returned an IC50 in series [3] of 5 nM.
As for `COCCN1CCN(c2cc(F)ccc2CNC(=O)c2nc(C3CCOC3)n(C)c(=O)c2O)C1=O` (racemic), the Vd in series [4] amounted to 0.44 L/kg. The same molecule gave a half-life in series [9] of 27.6 min. For the same molecule, the EC50 is 27 nM in series [1] and 5 nM in series [2]. The same molecule came in with a clearance in [10] of 15 mL/min/kg. For the same molecule, the concentration for half-maximal inhibition (IC50) in [3] stood at 3 nM.
For `Cn1c(C2COCC2O)nc(C(=O)NCc2ccc(F)cc2)c(O)c1=O` (racemic), the 50% effective concentration (EC50) in [1] amounted to 126 nM; in series [2], 48 nM. This molecule also showed an IC50 in series [3] of 6 nM.
Taken in the same sequence, the figures for `Cn1c(C2(C)CCCO2)nc(C(=O)NCc2ccc(F)cc2)c(O)c1=O` (racemic) were 120 nM, 10 nM and 5 nM.
For `Cn1c(C2CCOCC2)nc(C(=O)NCc2ccc(F)cc2N2CCCCS2(=O)=O)c(O)c1=O`, in that order: 11 nM, 4 nM and 11 nM.
As for `Cn1c(C2CCOCC2)nc(C(=O)NCc2ccc(F)cc2N2CCN(C(C)(C)C)S2(=O)=O)c(O)c1=O`, the Vd in [4] worked out at 0.61 L/kg. This molecule also gave a half-life in series [9] of 13.2 min. In addition, the EC50 turned out to be 7 nM in series [1] and 2 nM in series [2]. In series [10], this molecule gave a clearance of 41 mL/min/kg. Further, in [3], the 50% inhibitory concentration (IC50) worked out at 17 nM.
As to `CN1CCN(c2cc(F)ccc2CNC(=O)c2nc(C3CCOC3)n(C)c(=O)c2O)C1=O` (racemic), the figures for the EC50 in series [1] and in series [2] were 30 nM and 7 nM, respectively. The molecule also gave a half-maximal inhibitory concentration (IC50) in series [3] of 6 nM.
Consider `Cn1c(C2=CCOC2)nc(C(=O)NCc2ccc(F)cc2)c(O)c1=O`, for which the half-maximal effective concentration (EC50) amounted to 1780 nM in series [1] and 206 nM in series [2]. Besides, in series [3], the midpoint of inhibition, the IC50, lay at 19 nM.
For `Cn1c(C2CCOC2)nc(C(=O)NCc2ccc(F)cc2)c(O)c1=O` (racemic), in series [4], the Vd worked out at 0.14 L/kg. Besides, the AUC in series [5] was 33.9 µM·h. In addition, the peak level in [6] (Cmax) was 10.5 µM. The time to peak (Tmax) in [7] was determined as 40.2 min. In series [8], this molecule had a bioavailability of 68%. The half-life in [9] is 97.8 min. For the same molecule, the EC50 in series [1] worked out at 60 nM; in [2], 9 nM. This molecule had a clearance in series [10] of 4.9 mL/min/kg. Further, the half-maximal inhibitory concentration (IC50) in series [3] worked out at 4 nM.
For `Cn1c(C2CCOC2)nc(C(=O)NCc2ccc(F)cc2N2CCN(C(C)(C)C)S2(=O)=O)c(O)c1=O` (racemic), the Vd in series [4] came out at 0.36 L/kg. The half-life in [9] was 14.4 min. For the same molecule, the EC50 in series [1] turned out to be 22 nM; in series [2] it was 2 nM. Besides, in [10], the clearance was 31 mL/min/kg. The molecule further registered an IC50 in series [3] of 16 nM.
As to `Cn1c(C2CCOC2)nc(C(=O)NCc2ccc(F)cc2-n2cncn2)c(O)c1=O` (racemic), in series [4], the Vd is 0.98 L/kg. The same molecule showed a half-life in series [9] of 25.2 min. Also, the results for the half-maximal effective concentration (EC50) in [1] and in [2] were 18 nM and 7 nM, respectively. The clearance in series [10] is 47 mL/min/kg. In series [3], this molecule returned an IC50 of 4 nM.
Take `CN(C)S(=O)(=O)c1cc(F)ccc1CNC(=O)c1nc(C2CCOC2)n(C)c(=O)c1O` (racemic): the EC50 in series [1] stood at 25 nM; in series [2], 4 nM. The molecule also returned an IC50 in series [3] of 10 nM.
For `CN1C(C)(C)CN(c2cc(F)ccc2CNC(=O)c2nc(C3CCOCC3)n(C)c(=O)c2O)S1(=O)=O`, in that order: 7 nM, 2 nM and 6 nM.
Taken in the same sequence, the figures for `CN(C)S(=O)(=O)c1cc(F)ccc1CNC(=O)c1nc(C2CCOCC2)n(C)c(=O)c1O` were 15 nM, 4 nM and 12 nM.
With `Cn1c(C2CCOCC2)nc(C(=O)NCc2ccc(F)cc2S(C)(=O)=O)c(O)c1=O`, the Vd in series [4] is 0.13 L/kg. This molecule also had a half-life in series [9] of 34.8 min. Also, the concentration giving a half-maximal response (EC50) in series [1] turned out to be 13 nM; in series [2], 6 nM. Further, the clearance in series [10] came to 3.9 mL/min/kg. Besides, the IC50 in series [3] worked out at 8 nM.
With `Cn1c(C2CCOC2)nc(C(=O)NCc2ccc(F)cc2S(C)(=O)=O)c(O)c1=O` (racemic), the 50% effective concentration (EC50) in [1] amounted to 33 nM; in series [2] it was 14 nM. In series [3], this molecule registered a half-inhibitory concentration (IC50) of 9 nM.
In the case of `Cn1ncnc1-c1cc(F)ccc1CNC(=O)c1nc(C2CCOC2)n(C)c(=O)c1O` (racemic), the Vd in series [4] stood at 0.36 L/kg. For the same molecule, the half-life in series [9] was 30 min. The figures for the EC50 in [1] and in [2] were 11 nM and 5 nM, respectively. Further, the clearance in series [10] was 12 mL/min/kg. Also, in series [3], half-maximal inhibition (IC50) was put at 6 nM.
As to `CSC1COCC1c1nc(C(=O)NCc2ccc(F)cc2)c(O)c(=O)n1C` (racemic), the Vd in series [4] stood at 0.15 L/kg. For the same molecule, the AUC in series [5] is 39.5 µM·h. The molecule further came in with a Cmax in series [6] of 8.04 µM. For the same molecule, the time of peak concentration (Tmax) in [7] was 100 min. The same molecule gave a bioavailability in [8] of 67%. The molecule further had a half-life in series [9] of 64.8 min. Further, the concentration for a half-maximal effect (EC50) in [1] is 33 nM; in series [2] it was 7 nM. This molecule also came in with a clearance in series [10] of 3.6 mL/min/kg. The IC50 in series [3] turned out to be 3 nM.
`Cc1ncnn1-c1cc(F)ccc1CNC(=O)c1nc(C2CCOC2)n(C)c(=O)c1O` (racemic): in series [4], the Vd was determined as 0.76 L/kg. Moreover, the half-life in [9] is 13.8 min. For the same molecule, the 50% effective concentration (EC50) in series [1] amounted to 18 nM; in series [2], 14 nM. Besides, the clearance in series [10] came to 37 mL/min/kg. This molecule had an IC50 in [3] of 12 nM.
